Literature values, collected in US20040115708A1, “Method of screening agents for the treatment and prevention of cancer and cachexia and the new use of specific agents for the treatment and prevention of cancer and cachexia” (priority 2002, published 2004).

Assays:
[1] = tested on: 8-Hydroxy-deoxyguanosine (8-OH-dG) in lung DNA
[2] = tested on: cancer in NNK treated animals; settings: consumption of EGCG

Compound | 8-OH-dG (hydroxyl radical-caused DNA adduct) level ([1]; mice treated with NNK) | levels of 8-OH-dG in lung DNA ([1]; consumption of EGCG, NNK treated animals) | incidence of cancer [2]
CN(CCCC(=O)c1cccnc1)N=O [NNK, 4-(methyInitrosamino)-1-(3-pyridyl)-1-butanone] | elevated | – | –
(−)-epigallocatechin gallate | – | significantly lowers | decreases
